Source: article PMC11855230, “Oligoethylene Phosphoramidate‐Based Kinase Inhibitor Prodrugs – Solubility, Enzyme Inhibition, and Hydrolysis” (Chemistry (Weinheim an Der Bergstrasse, Germany), 2025)
≈ marks a conversion by molar mass, not a printed value. Where “and” joins values, the source holds several entries; their conditions need not be identical. Equal values may be shown once. Read-outs that look alike come from different tables or passages of the source. Marks after values point to notes of the source that are not given here.

What was measured:
[1] = set-up: method as in PMID 38923708; details: kinetic solubility, cited from earlier work
[2] = Dynamic light scattering (DLS) of drug‐conjugates in water; assay type: physicochemical; details: for PDI / hydrodynamic diameter: DLS in water, at the concentration given per compound (Figures S2–S5); for hydrodynamic diameter d: DLS in water at critical solution concentration c sol, 25 °C
Procedure: To study, whether self‐assembly into micelles might have an effect on the solubility limit of the prodrugs, we perform dynamic light scattering (DLS) of the drug‐conjugates in water. […] Micelles below 6 nm (Cer‐OEG8 , Cri‐OEG3 , Cri‐OEG8 , Pal‐OEG3 , Rib‐OEG2 , and Rib‐OEG3 ) are potentially affected by renal clearance.
Dynamic Light Scattering (DLS): Possible self‐assemblies are investigated with DLS Nano‐Zetasizer (Malvern Instruments) at 25 °C with a scattering angle of 173° at λ=633 nm.

[3] = target: T1, ROS proto‐oncogene 1 (ROS1) (Homo sapiens, UniProt P08922); assay: ROS1 cell free enzyme (kinase) inhibition assay, luminescence; assay type: biochemical; details: 1 % DMSO, duplicates
T1 construct: purchased biomol
Procedure: (§1) Apart from solubility and self‐assembly, we investigate the inhibitory potential against the respectively targeted receptors.
(§2) Enzyme Binding Studies (ROS1):[21] ROS1 assays are performed with the following substances: Cer‐OEG2 , Cer‐OEG3 , Cer‐OEG8 , Cri‐OEG2 , Cri‐OEG3 and Cri‐OEG8 . The instructions are followed with some specifications: DTT (10 μL of 1 M DTT to 1 mL buffer) is added to the buffer solution and the assay is performed with 1 % DMSO in the final reaction volume. Serial dilutions of inhibitor (5 μL) are mixed with 20 μL enzyme (5 ng/μL), 5 μL of IGF‐1Rtide (1 mg/mL) and 1 μL ATP solution (500 μM) in a 96‐well plate. The blank contains no enzyme and no inhibitor. The positive control contains enzyme but no inhibitor. The receptor inhibitory rate is calculated from the luminescence as IC50. […] Luminescence is recorded on Promega GloMax Navigator Microplate Luminometer. Samples are prepared in duplicates.

[4] = pH dependent hydrolysis / drug release by HPLC; assay type: physicochemical; details: acetate buffer, pH 3, 37 °C
Excerpt: The working principle of a prodrug is to improve solubility and circulation time and not necessarily to improve binding to the target. However, binding should of course become important when the prodrug has arrived at the designated site and the promoiety is cleaved to release the native drug. In case of the phosphoramidate linked OEG chains, release of the native drug is induced by hydrolysis at low pH.[21, 28, 29, 30, 31, 32] The stability of the phosphoramidate linker and therefore its half‐life depends on the chemical surrounding in the molecule.[28, 29] Since we only change distant substituents by varying the binding motif of the respective kinase inhibitor, we expect only minor influence on the rate of hydrolysis. We investigate the samples at pH 3, 4, 5, 6, and 7.4 over a course of 72 h at 37 °C using high pressure liquid chromatography (HPLC) (see Figure S10–13 and Table S1–11). […]
High Performance Liquid Chromatography (HPLC): Drug release is monitored on Agilent 1260 Infinity containing the following modules: G1311B Quat Pump, G1329B ALS, G1365D MWD VL in combination with a Jetstream 2 plus column thermostat. […] Flow rate is set to 0.3 mL/min and absorption is detected at 254 nm. […]
pH Dependent Hydrolysis:[21] […] Drug release percentages are calculated form the ratio of the peak area of drug and drug‐OEG conjugate for 0, 3, 6, 24, 48 and 72 h.

[5] = Solubility limit in water (kinetic solubility) by UV/Vis optical density at 600 nm; assay type: physicochemical; details: kinetic from dmso stock, absorption at 600 nm, read-out: c sol (water), solubility limit in water
Excerpt: With all purified compounds in hand, we start to analyze the different properties of the conjugates and discuss the influence of the OEG‐chain lengths. We determine the solubility in water with UV/Vis spectroscopy by measuring the optical density at 600 nm. The absorption (A) is plotted against varying concentration (c) of the drug conjugates (see Figure S1). In the range, in which the drug and their conjugates are still soluble, A can be fitted linearly. When the solubility limit is reached, the drug crashes out of solution leading to scattering and reduced transmission manifesting a threshold, upon which the increase in absorption is fitted with a second line of higher slope. The intersection between the two linear fits gives the critical concentration for the kinetic solubility c sol. Detailed solubility plots can be found in the supporting information (see Figure S1). In our previous study with n=4, the solubility of all three kinase inhibitor prodrugs in water is improved over the native drug. However, the extent of improvement varies between the different kinase inhibitor prodrugs. For a better overview, we have included the performance of our previous study (see Figure 2).[21] […] We observe an improvement of solubility upon conjugation with all of our different OEG‐phosphates.
UV‐Vis Spectroscopy: Changes in solubility are measured with a Lambda 365 spectrometer by PerkinElmer supplied with UV WinLab software. Samples are prepared in water and placed in a 1 cm quartz cuvette.

[6] = target: T2, cyclin‐dependent kinase 4 (CDK4) (Homo sapiens, UniProt P11802); assay: CDK4 cell free enzyme (kinase) inhibition assay, luminescence; assay type: biochemical; details: 1 % DMSO, duplicates
T2 construct: purchased biomol
Procedure: as §1
as §2, with “Binding Assays (CDK4):[21] […]” for “Binding Studies (ROS1):[21] ROS1 assays are performed with the following substances: Cer‐OEG2 , Cer‐OEG3 , Cer‐OEG8 , Cri‐OEG2 , Cri‐OEG3 and Cri‐OEG8 .”, “enzyme (10” for “enzyme (5”, “of 10x CDK4 substrate peptide” for “of IGF‐1Rtide (1 mg/mL)”

[7] = tested on: HeLa cells; assay: Cell uptake in HeLa cells by confocal laser scanning microscopy (CLSM); assay type: cell-based; details: 25 μM, 23 h, excitation 405 nm
Procedure: Altogether an OEG chain length of n=4 seems to be favorable for producing prodrugs with improved solubility from kinase inhibitors. […] Here we therefore concentrate on Rib‐OEG4 . […] The drug and its conjugate are exited at 405 nm, leading to weak fluorescence of the drugs.
Uptake is followed by Confocal for 23 h using Leica TCS SP8 Lightning confocal microscope with an OnkoLab incubator chamber with a constant temperature of 37 °C and a 5 % CO2 atmosphere at 95 % humidity (gas flow: 0.1 L/min). Drug and drug‐OEG conjugate is excited at 405 nm.

[8] = tested on: HeLa cells; assay: Cellular drug release in HeLa cells, LC–MS of cell lysate; assay type: cell-based; details: 20 μM, 48 h
Procedure: HeLa cells are treated with Rib‐OEG4 for 48 h followed by cell lysis. The cell lysate is analyzed with liquid chromatography‐mass spectrometry (LC–MS). […] This confirms that release of the drug is possible in cells and that the low pH in some of the cell compartments, such as the lysosomes, yield release of the effective drug molecule.
Cellular Drug‐Release with LC–MS: Drug release studies are performed according to previous publication with 20 μM of Rib‐OEG4 .[21]

[9] = values marked a from previous publication ref 21

T1 sequence (P08922 28-2347): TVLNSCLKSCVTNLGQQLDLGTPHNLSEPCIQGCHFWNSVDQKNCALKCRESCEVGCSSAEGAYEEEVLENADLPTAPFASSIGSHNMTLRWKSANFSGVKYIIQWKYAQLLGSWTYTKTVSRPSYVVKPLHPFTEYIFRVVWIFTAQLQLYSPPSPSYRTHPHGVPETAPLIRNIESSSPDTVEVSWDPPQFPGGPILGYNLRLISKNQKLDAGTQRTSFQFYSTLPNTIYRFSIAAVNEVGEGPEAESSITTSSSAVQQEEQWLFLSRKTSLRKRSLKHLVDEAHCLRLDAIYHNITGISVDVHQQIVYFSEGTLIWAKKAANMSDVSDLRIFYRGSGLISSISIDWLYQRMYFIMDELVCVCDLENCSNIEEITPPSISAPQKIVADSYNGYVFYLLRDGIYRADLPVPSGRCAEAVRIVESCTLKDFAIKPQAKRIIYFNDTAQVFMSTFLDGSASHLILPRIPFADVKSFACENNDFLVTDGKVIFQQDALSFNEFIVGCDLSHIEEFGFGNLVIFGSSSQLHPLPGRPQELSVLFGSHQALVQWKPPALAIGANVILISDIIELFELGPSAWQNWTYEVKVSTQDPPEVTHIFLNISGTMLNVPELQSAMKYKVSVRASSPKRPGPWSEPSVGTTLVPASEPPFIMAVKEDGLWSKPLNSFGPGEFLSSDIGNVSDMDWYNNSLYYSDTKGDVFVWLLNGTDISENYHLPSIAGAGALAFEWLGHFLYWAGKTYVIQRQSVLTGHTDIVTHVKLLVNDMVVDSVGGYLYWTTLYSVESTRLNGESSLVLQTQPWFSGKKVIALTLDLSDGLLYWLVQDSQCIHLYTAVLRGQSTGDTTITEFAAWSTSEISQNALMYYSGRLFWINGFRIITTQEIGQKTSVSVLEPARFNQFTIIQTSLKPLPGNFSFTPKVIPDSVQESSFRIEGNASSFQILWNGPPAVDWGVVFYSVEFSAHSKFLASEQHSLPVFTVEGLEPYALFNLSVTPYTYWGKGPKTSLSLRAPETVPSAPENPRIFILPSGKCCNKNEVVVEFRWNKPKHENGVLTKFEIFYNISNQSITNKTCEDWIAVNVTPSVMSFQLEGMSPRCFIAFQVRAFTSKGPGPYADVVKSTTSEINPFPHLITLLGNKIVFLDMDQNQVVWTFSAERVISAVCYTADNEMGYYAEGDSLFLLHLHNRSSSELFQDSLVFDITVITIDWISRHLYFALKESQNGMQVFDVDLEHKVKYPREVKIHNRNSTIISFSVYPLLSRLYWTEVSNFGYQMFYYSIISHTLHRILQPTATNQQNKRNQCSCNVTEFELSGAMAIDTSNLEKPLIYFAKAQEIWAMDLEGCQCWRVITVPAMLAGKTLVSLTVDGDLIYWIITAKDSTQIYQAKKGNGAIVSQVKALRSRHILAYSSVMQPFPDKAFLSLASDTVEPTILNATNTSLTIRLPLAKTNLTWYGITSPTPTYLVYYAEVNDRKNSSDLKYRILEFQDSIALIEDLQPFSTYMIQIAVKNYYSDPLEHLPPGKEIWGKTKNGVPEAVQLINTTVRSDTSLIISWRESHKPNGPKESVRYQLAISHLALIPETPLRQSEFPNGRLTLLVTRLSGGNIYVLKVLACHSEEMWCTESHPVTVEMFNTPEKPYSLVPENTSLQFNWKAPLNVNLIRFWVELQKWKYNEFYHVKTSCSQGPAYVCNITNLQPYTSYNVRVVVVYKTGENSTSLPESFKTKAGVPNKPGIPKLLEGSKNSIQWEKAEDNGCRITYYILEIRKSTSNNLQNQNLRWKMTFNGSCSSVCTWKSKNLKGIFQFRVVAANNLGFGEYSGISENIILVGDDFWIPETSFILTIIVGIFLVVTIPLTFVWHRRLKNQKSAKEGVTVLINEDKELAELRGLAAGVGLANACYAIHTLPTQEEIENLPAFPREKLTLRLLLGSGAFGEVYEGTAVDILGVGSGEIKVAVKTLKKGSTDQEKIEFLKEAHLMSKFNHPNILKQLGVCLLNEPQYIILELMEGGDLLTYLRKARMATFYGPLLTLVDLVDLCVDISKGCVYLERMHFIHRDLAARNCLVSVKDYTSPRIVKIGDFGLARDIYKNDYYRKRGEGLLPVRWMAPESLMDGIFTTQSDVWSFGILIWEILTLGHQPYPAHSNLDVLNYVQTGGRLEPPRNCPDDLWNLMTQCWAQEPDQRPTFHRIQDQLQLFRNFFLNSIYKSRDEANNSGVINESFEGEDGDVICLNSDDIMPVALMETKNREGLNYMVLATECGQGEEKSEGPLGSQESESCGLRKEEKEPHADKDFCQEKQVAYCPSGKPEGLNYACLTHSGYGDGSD
T2 sequence (P11802 whole entry): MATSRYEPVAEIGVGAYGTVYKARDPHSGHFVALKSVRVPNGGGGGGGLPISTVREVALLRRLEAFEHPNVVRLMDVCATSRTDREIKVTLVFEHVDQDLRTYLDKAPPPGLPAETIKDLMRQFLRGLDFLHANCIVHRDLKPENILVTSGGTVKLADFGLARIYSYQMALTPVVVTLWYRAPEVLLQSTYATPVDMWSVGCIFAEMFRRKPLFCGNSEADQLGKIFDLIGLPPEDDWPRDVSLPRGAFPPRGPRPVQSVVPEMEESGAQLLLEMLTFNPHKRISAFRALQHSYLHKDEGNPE
T2 sequence (P30281 whole entry partner): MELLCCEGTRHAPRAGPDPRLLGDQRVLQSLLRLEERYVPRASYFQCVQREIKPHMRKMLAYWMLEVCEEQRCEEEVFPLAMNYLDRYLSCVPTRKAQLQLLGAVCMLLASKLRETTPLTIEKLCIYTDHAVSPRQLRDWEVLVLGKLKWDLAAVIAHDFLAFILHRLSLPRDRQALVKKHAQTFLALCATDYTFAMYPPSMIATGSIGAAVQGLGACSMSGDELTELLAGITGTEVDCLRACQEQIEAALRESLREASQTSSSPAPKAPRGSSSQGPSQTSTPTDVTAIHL

Structure (SMILES) | PDI [2] | hydrodynamic diameter [2] | IC50 [3] | solubility [5] | IC50 [6] | further results
Cc1cc(Nc2ncc(Cl)c(Nc3ccccc3S(=O)(=O)C(C)C)n2)c(OC(C)C)cc1C1CCNCC1 [Ceritinib] | – | – | – | – | – | c sol (water), solubility limit in water ([1]; values marked a from previous publication ref 21, listed as Ceritninib): 0.93 mM; c sol (water), solubility limit in water [1, 9]: ≤0.93^a mM
COCCOCCOP(=O)(OCCOCCOC)N1CCC(c2cc(OC(C)C)c(Nc3ncc(Cl)c(Nc4ccccc4S(=O)(=O)C(C)C)n3)cc2C)CC1 [Cer‐OEG2] | 0.46 | 565 nm | 100 nM | – | – | –
COCCOCCOCCOP(=O)(OCCOCCOCCOC)N1CCC(c2cc(OC(C)C)c(Nc3ncc(Cl)c(Nc4ccccc4S(=O)(=O)C(C)C)n3)cc2C)CC1 [Cer‐OEG3] | 0.05 | 279 nm | 45 nM | – | – | –
COCCOCCOCCOCCOCCOCCOCCOCCOP(=O)(OCCOCCOCCOCCOCCOCCOCCOCCOC)N1CCC(c2cc(OC(C)C)c(Nc3ncc(Cl)c(Nc4ccccc4S(=O)(=O)C(C)C)n3)cc2C)CC1 [Cer‐OEG8] | 0.25 | 4.9 nm | 100 nM | 1.75 mM (≈ 2400 µg/mL) | – | half-life [4]: 50 h
C[C@@H](Oc1cc(-c2cnn(C3CCNCC3)c2)cnc1N)c1c(Cl)ccc(F)c1Cl [Crizotinib] | – | – | – | – | – | c sol (water), solubility limit in water [1, 9]: ≤0.77 ^a mM
COCCOCCOP(=O)(OCCOCCOC)N1CCC(n2cc(-c3cnc(N)c(O[C@H](C)c4c(Cl)ccc(F)c4Cl)c3)cn2)CC1 [Cri‐OEG2] | 0.03 | 151 nm | 50 nM | – | – | –
COCCOCCOCCOP(=O)(OCCOCCOCCOC)N1CCC(n2cc(-c3cnc(N)c(O[C@H](C)c4c(Cl)ccc(F)c4Cl)c3)cn2)CC1 [Cri‐OEG3] | 0.02 | 3.7 nm | 45 nM | 19.1 mM (≈ 15700 µg/mL) | – | –
COCCOCCOCCOCCOCCOCCOCCOCCOP(=O)(OCCOCCOCCOCCOCCOCCOCCOCCOC)N1CCC(n2cc(-c3cnc(N)c(O[C@H](C)c4c(Cl)ccc(F)c4Cl)c3)cn2)CC1 [Cri‐OEG8] | 0.36 | 3.3 nm | 140 nM | ≤ 4.62 mM | – | –
CC(=O)c1c(C)c2cnc(Nc3ccc(N4CCNCC4)cn3)nc2n(C2CCCC2)c1=O [Palbociclib] | – | – | – | – | – | c sol (water), solubility limit in water [1, 9]: ≤0.02 ^a mM
COCCOCCOP(=O)(OCCOCCOC)N1CCN(c2ccc(Nc3ncc4c(C)c(C(C)=O)c(=O)n(C5CCCC5)c4n3)nc2)CC1 [Pal‐OEG2] | 0.17 | 264 nm | – | – | 1000 nM | –
COCCOCCOCCOP(=O)(OCCOCCOCCOC)N1CCN(c2ccc(Nc3ncc4c(C)c(C(C)=O)c(=O)n(C5CCCC5)c4n3)nc2)CC1 [Pal‐OEG3] | 0.74 | 5 nm | – | 8.71 mM (≈ 7140 µg/mL) | 215 to 270 nM and 215 nM | –
COCCOCCOCCOCCOCCOCCOCCOCCOP(=O)(OCCOCCOCCOCCOCCOCCOCCOCCOC)N1CCN(c2ccc(Nc3ncc4c(C)c(C(C)=O)c(=O)n(C5CCCC5)c4n3)nc2)CC1 [Pal‐OEG8] | 0.33 | 596 nm | – | ≤ 3.16 mM | 215 to 270 nM and 270 nM | hydrodynamic diameter d [2]: 596 nm
CN(C)C(=O)c1cc2cnc(Nc3ccc(N4CCNCC4)cn3)nc2n1C1CCCC1 [Ribociclib, reference compound] | – | – | – | 0.49 mM (≈ 213 µg/mL) | – | uptake in HeLa cells [7]: taken up by the cells
COCCOCCOP(=O)(OCCOCCOC)N1CCN(c2ccc(Nc3ncc4cc(C(=O)N(C)C)n(C5CCCC5)c4n3)nc2)CC1 [Rib‐OEG2] | 0.22 | 2.5 nm | – | 12.3 mM (≈ 8840 µg/mL) | 110 nM | –
COCCOCCOCCOP(=O)(OCCOCCOCCOC)N1CCN(c2ccc(Nc3ncc4cc(C(=O)N(C)C)n(C5CCCC5)c4n3)nc2)CC1 [Rib‐OEG3] | 0.15 | 1.8 nm | – | 13.5 mM (≈ 10900 µg/mL) | 370 nM | –
COCCOCCOCCOCCOP(=O)(OCCOCCOCCOCCOC)N1CCN(c2ccc(Nc3ncc4cc(C(=O)N(C)C)n(C5CCCC5)c4n3)nc2)CC1 [Rib‐OEG4] | 0.35 | 92 nm | – | 9.33 mM (≈ 8350 µg/mL) | 12 nM | uptake in HeLa cells [7]: taken up by the cells; hydrodynamic diameter d [2]: 92 nm; release of native drug from prodrug in HeLa cells [8]: most of the native drug has been released
COCCOCCOCCOCCOCCOCCOCCOCCOP(=O)(OCCOCCOCCOCCOCCOCCOCCOCCOC)N1CCN(c2ccc(Nc3ncc4cc(C(=O)N(C)C)n(C5CCCC5)c4n3)nc2)CC1 [Rib‐OEG8] | 0.22 | 64 nm | – | 1.52 mM (≈ 1900 µg/mL) | 400 nM | hydrodynamic diameter d [2]: 64 nm
